Laboratory results taken from patent US20250326769A1, “HETEROAROMATIC MACROCYCLIC ETHER CHEMOTHERAPEUTIC AGENTS” (Nuvalent, Inc., priority 2022, published 2025).

Assays:
Type in all cases: cell-based
[1] = biological target: Ba/F3 EML4-ALK v1 I1171N (Homo sapiens (Human), UniProt Q9HC35+Q9UM73, I1171N); experiment: Ba/F3 cell proliferation assay, EML4-ALK v1 I1171N; settings: for IC50: Ba/F3 stable cells, 72 hours, CellTiter-Glo; for ETV6-TRKB / EML4-ALK v1 I1171N: TRKB selectivity, ratio of Ba/F3 IC50 values
Ba/F3 EML4-ALK v1 I1171N, sequence (Q9UM73 other isoform, or with tags, fused parts or gaps I1171N): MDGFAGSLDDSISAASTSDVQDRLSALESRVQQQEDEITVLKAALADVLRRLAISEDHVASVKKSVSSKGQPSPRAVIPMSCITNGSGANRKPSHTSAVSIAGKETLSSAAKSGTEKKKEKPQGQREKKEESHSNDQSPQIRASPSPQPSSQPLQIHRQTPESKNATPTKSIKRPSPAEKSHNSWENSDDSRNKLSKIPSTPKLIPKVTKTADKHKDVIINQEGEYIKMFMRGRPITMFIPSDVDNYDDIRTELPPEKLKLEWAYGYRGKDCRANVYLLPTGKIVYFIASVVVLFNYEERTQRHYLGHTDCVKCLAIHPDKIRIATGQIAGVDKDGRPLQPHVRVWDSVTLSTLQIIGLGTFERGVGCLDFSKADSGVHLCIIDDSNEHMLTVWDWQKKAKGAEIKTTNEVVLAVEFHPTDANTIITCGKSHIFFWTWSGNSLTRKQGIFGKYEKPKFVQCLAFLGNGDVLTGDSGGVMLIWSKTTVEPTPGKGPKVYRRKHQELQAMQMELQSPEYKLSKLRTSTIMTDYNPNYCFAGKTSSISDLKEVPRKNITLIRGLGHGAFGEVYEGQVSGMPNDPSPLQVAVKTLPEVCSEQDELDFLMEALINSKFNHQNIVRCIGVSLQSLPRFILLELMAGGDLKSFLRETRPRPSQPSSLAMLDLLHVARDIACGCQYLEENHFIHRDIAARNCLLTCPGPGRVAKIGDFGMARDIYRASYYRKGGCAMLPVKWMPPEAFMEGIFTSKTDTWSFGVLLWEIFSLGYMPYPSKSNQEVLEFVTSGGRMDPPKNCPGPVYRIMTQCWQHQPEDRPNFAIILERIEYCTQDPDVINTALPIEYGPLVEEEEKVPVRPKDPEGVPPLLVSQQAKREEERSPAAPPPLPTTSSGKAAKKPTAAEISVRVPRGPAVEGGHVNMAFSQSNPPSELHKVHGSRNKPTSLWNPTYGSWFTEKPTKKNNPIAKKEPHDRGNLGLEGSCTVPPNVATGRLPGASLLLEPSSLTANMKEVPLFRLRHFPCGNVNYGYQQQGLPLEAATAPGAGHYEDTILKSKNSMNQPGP
Source text: (§1) Genes encoding EML4-ALK v1 (variant 1), EML4-ALK v1 G1202R, EML4-ALK v1 I1171IN, EML4-ALK v1 D1203N, EML4-ALK v1 I1171N/D1203N, and ETV6-TRKB were synthesized at GeneRay, cloned into the retroviral construct pMSCV-puro (Biovector), and packaged into retroviral particles. The virus was used to infect Ba/F3 cells (RIKEN) at multiplicity of infection=1 for 1 day. Infected cells were rescued in media (RPMI-1640 with 10% fetal bovine serum and 1% streptomycin and penicillin) supplemented with mouse IL-3 (10 ng/mL) for 2 days, and stable cell lines were selected by IL-3 withdrawal and puromycin (0.8 μg/mL) for 7 days. Monoclones were selected by single-cell dilution in IL-3-free medium containing puromycin (0.8 μg/mL). Transformation of desired genes was confirmed by Sanger sequencing and western blot using the following antibodies: ALK (CST #3633) and pan-TRK (Abcam #76291).
(§2) Stable cells were plated in a 384-well plate. Test compounds were then added in a 3-fold dilution series and incubated for 72 hours. CellTiter-Glo reagent (Promega) was added. Luminescence was measured on a plate reader. Half-maximal inhibitory concentration (ICso) was calculated from percent inhibition and inhibitor concentration using four-parameter logistic regression. Compound potency can be interpreted by binning IC50 values: bin A for high potency, 0.1 nM IC50<50 nM; bin B for medium potency, 50 nM<IC50<500 nM; and bin C for low potency, IC50>500 nM. […] Exemplary data is given in Table 4 (nd is not determined).
(§3) Ba/F3 proliferation is driven by the transduced oncogenes in the same way that cancer cell proliferation in humans is driven by the expression of equivalent oncogenes.
(§4) TRKB selectivity was calculated by dividing a compound's TRKB potency by its primary target potency (e.g., ETV6-TRKB IC50/EML4-ALK v1 IC50). Compound selectivity can be interpreted by binning ratio values: bin A for very high selectivity, ratio≥30-fold; bin B for high selectivity, ratio≥10-fold but<30; bin C for moderate selectivity, ratio≥1 but<10; and bin D for low selectivity, ratio<1. […] (nd=not determined).

[2] = biological target: Ba/F3 EML4-ALK v1 I1171N/D1203N (Homo sapiens (Human), UniProt Q9HC35+Q9UM73, D1203N/I1171N); experiment: Ba/F3 cell proliferation assay, EML4-ALK v1 I1171N/D1203N; settings: for IC50: Ba/F3 stable cells, 72 hours, CellTiter-Glo; for ETV6-TRKB / EML4-ALK v1 I1171N/D1203N / Selectivity for Ba/F3 EML4-ALK v1 I1171N-D1203N IC50 over Ba/F3 ETV6-TRKB IC50: TRKB selectivity, ratio of Ba/F3 IC50 values; for Selectivity for Ba/F3 EML4-ALK v1 I1171N-D1203N IC50 over Ba/F3 ETV6-TRKB IC50: Table 6 bins
Ba/F3 EML4-ALK v1 I1171N/D1203N, sequence (Q9UM73 other isoform, or with tags, fused parts or gaps I1171N/D1203N): as the sequence (Q9UM73 other isoform, or with tags, fused parts or gaps I1171N) above, with D642N counted along it
Source text: as §1, §2, §3, §4
Additional exemplified compounds were also tested against ALK-INDN and TRKB. The TRKB selectivity was calculated by dividing a compound's TRKB potency by its primary target potency (e.g., ETV6-TRKB IC50/EMIL4-ALK I1171N-D1203N v1 IC50). Compound selectivity can be interpreted by binning ratio values: bin AA for the selectivity with the ratio≥30-fold; bin BB for the selectivity with the ratio≥10-fold but<30; bin CC for the selectivity with the ratio≥5 but<10; bin DD for the selectivity with the ratio≥1 but<5; and bin EE for the selectivity with the ratio<1.

[3] = biological target: Ba/F3 ETV6-TRKB (Homo sapiens, UniProt Q16620); experiment: Ba/F3 cell proliferation assay, ETV6-TRKB; settings: Ba/F3 stable cells, 72 hours, CellTiter-Glo; read-out: ETV6-TRKB IC50
Ba/F3 ETV6-TRKB, sequence (Q16620 32-822 limits assumed, change not shown): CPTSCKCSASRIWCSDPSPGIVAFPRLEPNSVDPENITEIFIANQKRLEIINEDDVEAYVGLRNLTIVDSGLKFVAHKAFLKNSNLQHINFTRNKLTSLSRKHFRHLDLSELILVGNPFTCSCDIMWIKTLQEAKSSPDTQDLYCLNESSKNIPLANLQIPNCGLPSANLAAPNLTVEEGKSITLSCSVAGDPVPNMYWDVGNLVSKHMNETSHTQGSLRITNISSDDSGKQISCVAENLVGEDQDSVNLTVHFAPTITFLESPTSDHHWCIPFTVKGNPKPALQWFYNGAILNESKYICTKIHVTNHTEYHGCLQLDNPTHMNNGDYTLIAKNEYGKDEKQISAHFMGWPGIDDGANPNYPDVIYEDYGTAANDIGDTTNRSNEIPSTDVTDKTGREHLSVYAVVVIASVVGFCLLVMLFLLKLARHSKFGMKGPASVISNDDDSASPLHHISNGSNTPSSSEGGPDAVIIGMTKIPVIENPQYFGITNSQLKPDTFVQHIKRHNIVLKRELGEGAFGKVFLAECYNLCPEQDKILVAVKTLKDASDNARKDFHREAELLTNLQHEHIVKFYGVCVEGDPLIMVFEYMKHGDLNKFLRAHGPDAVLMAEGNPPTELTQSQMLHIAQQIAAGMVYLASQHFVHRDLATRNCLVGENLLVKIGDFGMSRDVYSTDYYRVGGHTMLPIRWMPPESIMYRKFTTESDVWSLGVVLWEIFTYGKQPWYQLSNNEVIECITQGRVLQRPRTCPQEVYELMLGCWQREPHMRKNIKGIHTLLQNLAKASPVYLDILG
Source text: as §1, §2, §3

C[C@H]1Oc2cc(cnc2N)-c2c(cnn2CC2CC2)C(=O)c2cccnc2-c2ccc(F)cc21 [Example 29, (R)-23-amino-3-(cyclopropylmethyl)-17-fluoro-20-methyl-21-oxa-3,4, 12,24-tetraazapentacyclo[20.3.1.0^2,^6.0^8,^13.0^14,^19]hexacosa-1(25),2(6),4,8(13),9,11,14,16,18,22(26),23-undecaen-7-one]
IC50 [1]: > 500 nM | ETV6-TRKB / EML4-ALK v1 I1171N [1]: B (bin B for high selectivity, ratio≥10-fold but<30) | IC50 [2]: > 500 nM | ETV6-TRKB / EML4-ALK v1 I1171N/D1203N [2]: B (bin B for high selectivity, ratio≥10-fold but<30) | Selectivity for Ba/F3 EML4-ALK v1 I1171N-D1203N IC50 over Ba/F3 ETV6-TRKB IC50 [2]: BB (bin BB for the selectivity with the ratio≥10-fold but<30) | IC50 [3]: > 500 nM

CCn1nc(C(=O)N(C)C)c2c1-c1cnc(N)c(c1)O[C@H](C)c1cc(F)cc(F)c1-c1ncccc1C2 [Example 46, N,N-dimethyl-(R)-23-amino-3-ethyl-15,17-difluoro-20-methyl-21-oxa-3,4,12,24-tetraazapentacyclo[20.3.1.0^2,^6.0^8,^13.0^14,^19]hexacosa-1(25),2(6),4,8(13),9,11,14,16,18,22(26),23-undecaene-5-carboxamide]
IC50 [1]: 50 to 500 nM | ETV6-TRKB / EML4-ALK v1 I1171N [1]: C (bin C for moderate selectivity, ratio≥1 but<10) | IC50 [2]: 0.1 to 50 nM | ETV6-TRKB / EML4-ALK v1 I1171N/D1203N [2]: B (bin B for high selectivity, ratio≥10-fold but<30) | IC50 [3]: 50 to 500 nM

C[C@H]1Oc2cc(cnc2N)-c2c(c(C(=O)N(C)C)nn2C2CCC2)Cc2cccnc2-c2ccc(F)cc21 [Example 48, N,N-dimethyl-(R)-23-amino-3-cyclobutyl-17-fluoro-20-methyl-21-oxa-3,4,12,24-tetraazapentacyclo[20.3.1.0^2,^6.0^8,^13.0^14,^19]hexacosa-1(25),2(6),4,8(13),9,11,14,16,18,22(26),23-undecaene-5-carboxamide]
IC50 [1]: 0.1 to 50 nM | IC50 [2]: 0.1 to 50 nM | IC50 [3]: 50 to 500 nM

CCn1nc2c(c1C#N)-c1cnc(N)c(c1)O[C@H](C)c1cc(F)ccc1-c1ncccc1C2=O [Example 50, (R)-23-amino-4-ethyl-17-fluoro-20-methyl-7-oxo-21-oxa-4,5,12,24-tetraazapentacyclo[20.3.1.0^2,^6.0^8,^13.0^14,^19]hexacosa-1(25),2,5,8,10,12,14,16,18,22(26),23-undecaene-3-carbonitrile]
IC50 [1]: 0.1 to 50 nM | ETV6-TRKB / EML4-ALK v1 I1171N [1]: A (bin A for very high selectivity, ratio≥30-fold) | IC50 [2]: 0.1 to 50 nM | ETV6-TRKB / EML4-ALK v1 I1171N/D1203N [2]: A (bin A for very high selectivity, ratio≥30-fold) | Selectivity for Ba/F3 EML4-ALK v1 I1171N-D1203N IC50 over Ba/F3 ETV6-TRKB IC50 [2]: AA (bin AA for the selectivity with the ratio≥30-fold) | IC50 [3]: 50 to 500 nM

CC(C)n1nc2c(c1C#N)-c1cnc(N)c(c1)O[C@H](C)c1cc(F)ccc1-c1ncccc1C2=O [Example 51, (R)-23-amino-17-fluoro-4-isopropyl-20-methyl-7-oxo-21-oxa-4,5,12,24-tetraazapentacyclo[20.3.1.0^2,^6.0^8,^13.0^14,^19]hexacosa-1(25),2,5,8,10,12,14,16,18,22(26),23-undecaene-3-carbonitrile]
IC50 [1]: 0.1 to 50 nM | ETV6-TRKB / EML4-ALK v1 I1171N [1]: A (bin A for very high selectivity, ratio≥30-fold) | IC50 [2]: 0.1 to 50 nM | ETV6-TRKB / EML4-ALK v1 I1171N/D1203N [2]: A (bin A for very high selectivity, ratio≥30-fold) | Selectivity for Ba/F3 EML4-ALK v1 I1171N-D1203N IC50 over Ba/F3 ETV6-TRKB IC50 [2]: AA (bin AA for the selectivity with the ratio≥30-fold) | IC50 [3]: 50 to 500 nM

COCCn1nc2c(c1C#N)-c1cnc(N)c(c1)O[C@H](C)c1cc(F)ccc1-c1ncccc1C2=O [Example 52, (R)-23-amino-17-fluoro-4-(2-methoxyethyl)-20-methyl-7-oxo-21-oxa-4,5,12,24-tetraazapentacyclo[20.3.1.0^2,^6.0^8,^13.0^14,^19]hexacosa-1(25),2,5,8,10,12,14,16,18,22(26),23-undecaene-3-carbonitrile]
IC50 [1]: 0.1 to 50 nM | ETV6-TRKB / EML4-ALK v1 I1171N [1]: A (bin A for very high selectivity, ratio≥30-fold) | IC50 [2]: 0.1 to 50 nM | ETV6-TRKB / EML4-ALK v1 I1171N/D1203N [2]: A (bin A for very high selectivity, ratio≥30-fold) | Selectivity for Ba/F3 EML4-ALK v1 I1171N-D1203N IC50 over Ba/F3 ETV6-TRKB IC50 [2]: AA (bin AA for the selectivity with the ratio≥30-fold) | IC50 [3]: 50 to 500 nM

C[C@H]1Oc2cc(cnc2N)-c2c(nn(C)c2CC2CC2)C(=O)c2cccnc2-c2ccc(F)cc21 [Example 53, (R)-23-amino-3-(cyclopropylmethyl)-17-fluoro-4-methyl-20-methyl-21-oxa-4,5,12,24-tetraazapentacyclo[20.3.1.0^2,^6.0^8,^13.0^14,^19]hexacosa-1(25),2,5,8,10,12,14,16,18,22(26),23-undecaen-7-one]
IC50 [1]: 50 to 500 nM | ETV6-TRKB / EML4-ALK v1 I1171N [1]: B (bin B for high selectivity, ratio≥10-fold but<30) | IC50 [2]: 0.1 to 50 nM | ETV6-TRKB / EML4-ALK v1 I1171N/D1203N [2]: A (bin A for very high selectivity, ratio≥30-fold) | IC50 [3]: > 500 nM

CCc1c2c(nn1C)C(=O)c1cccnc1-c1ccc(F)cc1[C@@H](C)Oc1cc-2cnc1N [Example 54, (R)-23-amino-3-ethyl-17-fluoro-4-methyl-20-methyl-21-oxa-4,5,12,24-tetraazapentacyclo[20.3.1.0^2,^6.0^8,^13.0^14,^19]hexacosa-1(25),2,5,8,10,12,14,16,18,22(26),23-undecaen-7-one]
IC50 [1]: 0.1 to 50 nM | ETV6-TRKB / EML4-ALK v1 I1171N [1]: C (bin C for moderate selectivity, ratio≥1 but<10) | IC50 [2]: 0.1 to 50 nM | ETV6-TRKB / EML4-ALK v1 I1171N/D1203N [2]: B (bin B for high selectivity, ratio≥10-fold but<30) | IC50 [3]: 0.1 to 50 nM

C[C@H]1Oc2cc(cnc2N)-c2c(C3CCC3)nn(C(=O)N(C)C)c2Cc2cccnc2-c2ccc(F)cc21 [Example 57, (R)-5-(N,N-dimethylcarbamoyl)-3-cyclobutyl-17-fluoro-20-methyl-21-oxa-4,5,12,24-tetraazapentacyclo[20.3.1.0^2,^6.0^8,^13.0^14,^19]hexacosa-1(25),2(6),3,8(13),9,11,14,16,18,22(26),23-undecaen-23-ylamine]
IC50 [1]: 0.1 to 50 nM | IC50 [2]: 0.1 to 50 nM | IC50 [3]: 50 to 500 nM

C[C@H]1Oc2cc(cnc2N)-c2c(C#N)nn(C(=O)N(C)C)c2Cc2cccnc2-c2c(F)cc(F)cc21 [Example 71, N,N-dimethyl-(R)-23-amino-3-cyano-15,17-difluoro-20-methyl-21-oxa-4,5,12,24-tetraazapentacyclo[20.3.1.0^2,^6.0^8,^13.0^14,^19]hexacosa-1(25),2(6),3,8(13),9,11,14,16,18,22(26),23-undecaene-5-carboxamide]
IC50 [1]: 50 to 500 nM | ETV6-TRKB / EML4-ALK v1 I1171N [1]: B (bin B for high selectivity, ratio≥10-fold but<30) | IC50 [2]: 50 to 500 nM | ETV6-TRKB / EML4-ALK v1 I1171N/D1203N [2]: B (bin B for high selectivity, ratio≥10-fold but<30) | IC50 [3]: > 500 nM

Cc1ccc2c(n1)-c1ccc(F)cc1[C@@H](C)Oc1cc(cnc1N)-c1c(C#N)nn(C(=O)N(C)C)c1C2 [Example 72, N,N-dimethyl-(R)-23-amino-3-cyano-17-fluoro-11,20-dimethyl-21-oxa-4,5,12,24-tetraazapentacyclo[20.3.1.0^2,^6.0^8,^13.0^14,^19]hexacosa-1(25),2(6),3,8(13),9,11,14,16,18,22(26),23-undecaene-5-carboxamide]
IC50 [1]: 50 to 500 nM | ETV6-TRKB / EML4-ALK v1 I1171N [1]: A (bin A for very high selectivity, ratio≥30-fold) | IC50 [2]: 50 to 500 nM | ETV6-TRKB / EML4-ALK v1 I1171N/D1203N [2]: B (bin B for high selectivity, ratio≥10-fold but<30) | IC50 [3]: > 500 nM

Cc1nc2c(s1)C(=O)c1nn(C)c(C#N)c1-c1cnc(N)c(c1)O[C@H](C)c1cc(F)ccc1-2 [Example 73, (R)-22-amino-16-fluoro-4-methyl-10,19-dimethyl-7-oxo-20-oxa-9-thia-4,5,11,23-tetraazapentacyclo[19.3.1.0^2,^6.0^8,^12.0^13,^18]pentacosa-1(24),2,5,8(12),10,13,15,17,21(25),22-decaene-3-carbonitrile]
IC50 [1]: 0.1 to 50 nM | IC50 [2]: 0.1 to 50 nM | IC50 [3]: 50 to 500 nM
